From patent US8415469B2, “Compounds and methods for kinase modulation, and indications therefor” (Plexxikon Inc., priority 2005, dated 2013)
Blank lines part the entries; values can stand above or below the molecule they belong to.

Tests used:
Format in all cases: biochemical
[1] = biological target: T1, Pim1 (Homo sapiens, UniProt P11309); assay: AlphaScreen kinase assay, Pim1; conditions: read-out: IC50, activity toward kinase Pim1
T1 construct: P1215.pET29SRI PIM1 E29-K313 HIS WT; made in house
T1 sequence (P11309 with tags, fused parts or gaps): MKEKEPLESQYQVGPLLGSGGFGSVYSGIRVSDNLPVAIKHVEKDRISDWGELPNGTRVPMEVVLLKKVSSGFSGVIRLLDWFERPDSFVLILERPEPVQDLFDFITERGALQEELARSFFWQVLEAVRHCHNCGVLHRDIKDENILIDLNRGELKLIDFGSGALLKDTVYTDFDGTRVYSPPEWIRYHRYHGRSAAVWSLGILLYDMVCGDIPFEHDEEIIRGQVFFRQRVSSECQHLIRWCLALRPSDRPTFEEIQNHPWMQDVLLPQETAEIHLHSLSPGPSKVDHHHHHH
From the text: (§1) AlphaScreen assay was used to screen additional kinases. The assay is similarly dependent on the phosphorylation of a peptide substrate. In this assay, an antibody that recognizes phosphorylated substrate is bound to an acceptor bead. The peptide substrate is attached to biotin, which binds to a donor head that contains streptavidin. Thus phosphorylated substrate is bound by antibody and streptavidin, bringing the donor and acceptor heads into close proximity when kinase is not inhibited. The donor produces singlet oxygen which results in emission from the acceptor when they are in close proximity. Conversely, when kinase is inhibited, the donor and acceptor beads are not associated and the emission from the acceptor is reduced.
(§2) AlphaScreen assays were done using compounds dissolved in DMSO to a concentration of 20 mM. The compounds were diluted accordingly to the desired final concentrations in each sample well, using 1:3 serial dilution for a total of 8 concentration points.

[2] = biological target: EphA2 (Homo sapiens, UniProt P29317); assay: AlphaScreen kinase assay, EphA2; conditions: read-out: IC50, activity toward kinase EphA2
Sequence of EphA2 (P29317 24-976): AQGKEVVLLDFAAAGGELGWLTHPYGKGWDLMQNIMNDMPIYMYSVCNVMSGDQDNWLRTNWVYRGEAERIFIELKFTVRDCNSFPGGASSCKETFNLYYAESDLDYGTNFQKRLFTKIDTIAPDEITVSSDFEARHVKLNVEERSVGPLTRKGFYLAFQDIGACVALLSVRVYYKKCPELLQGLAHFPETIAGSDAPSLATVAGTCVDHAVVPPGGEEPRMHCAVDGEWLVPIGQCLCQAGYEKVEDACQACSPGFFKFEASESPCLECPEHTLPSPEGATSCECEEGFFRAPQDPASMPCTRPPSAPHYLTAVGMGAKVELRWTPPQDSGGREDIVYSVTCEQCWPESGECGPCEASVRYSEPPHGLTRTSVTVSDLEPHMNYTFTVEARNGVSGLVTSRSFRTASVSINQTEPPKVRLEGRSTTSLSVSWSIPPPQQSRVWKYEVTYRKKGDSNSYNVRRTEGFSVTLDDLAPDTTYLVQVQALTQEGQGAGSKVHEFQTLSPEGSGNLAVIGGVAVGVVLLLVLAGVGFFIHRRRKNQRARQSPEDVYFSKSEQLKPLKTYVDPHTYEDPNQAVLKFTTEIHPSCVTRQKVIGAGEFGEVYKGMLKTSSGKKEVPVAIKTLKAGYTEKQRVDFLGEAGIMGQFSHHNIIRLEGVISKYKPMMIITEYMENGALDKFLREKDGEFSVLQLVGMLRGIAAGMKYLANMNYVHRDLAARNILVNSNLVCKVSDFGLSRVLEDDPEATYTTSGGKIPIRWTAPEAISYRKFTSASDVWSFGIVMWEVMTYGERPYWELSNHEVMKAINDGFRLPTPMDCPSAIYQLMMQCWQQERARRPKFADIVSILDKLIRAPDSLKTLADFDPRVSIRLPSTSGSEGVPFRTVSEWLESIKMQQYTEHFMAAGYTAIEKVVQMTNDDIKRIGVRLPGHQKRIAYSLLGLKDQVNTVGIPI
From the text: as §1, §2

[3] = biological target: T2, Irak4 (Homo sapiens, UniProt Q9NWZ3); assay: Z'-Lyte FRET kinase assay (Invitrogen), Irak4; conditions: read-out: IC50, activity toward kinase Irak4
T2 construct: purchased Invitrogen (assay run by Invitrogen)
T2 sequence (Q9NWZ3 1-460): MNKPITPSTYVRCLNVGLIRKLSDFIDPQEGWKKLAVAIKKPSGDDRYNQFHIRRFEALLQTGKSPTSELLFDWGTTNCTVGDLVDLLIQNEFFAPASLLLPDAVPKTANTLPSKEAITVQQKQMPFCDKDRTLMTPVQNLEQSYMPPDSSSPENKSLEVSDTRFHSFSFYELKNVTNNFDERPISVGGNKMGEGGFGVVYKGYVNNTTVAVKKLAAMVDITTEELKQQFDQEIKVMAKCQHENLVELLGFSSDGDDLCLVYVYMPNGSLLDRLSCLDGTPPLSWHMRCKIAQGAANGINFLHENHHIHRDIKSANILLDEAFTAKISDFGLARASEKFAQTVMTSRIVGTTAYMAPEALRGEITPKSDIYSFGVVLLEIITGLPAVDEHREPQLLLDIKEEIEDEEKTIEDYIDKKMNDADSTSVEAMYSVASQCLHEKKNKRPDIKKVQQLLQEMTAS
From the text: (§3) The effect of potential modulators of kinase activity can be measured in a variety of different assays known in the art. For example, direct radiometric, indirect FRET or AlphaScreen assays may be used to assess the level of phosphorylation of a substrate in the presence of test compounds in order to determine the inhibitory affect of the compound on the kinase. Invitrogen (Carlsbad, Calif.) uses a FRET based assay for Btk, EGFR, EphB2, Flt3, lrak4, Kdr, MAP2K1, MAPKAPK2, PDGFRB, PKC theta, Stk6 and Yes. For these assays, compounds of the invention were screened by Invitrogen using Z′-Lyte™ kinase assay.
Briefly, the Invitrogen kinase assay involves use of a specific peptide substrate optimized for each kinase, containing a fluorophore at each end that make up the FRET pair. The peptide sensitivity to proteolytic cleavage depends on phosphorylation of the peptide. Non-phosphorylated peptide is cleaved by a protease while peptide phosphorylated by the kinase is not cleaved. Cleavage of the peptide disrupts the FRET between the donor (coumarin) and acceptor (fluorescein) fluorophores, resulting in an increase in the ratio of donor emission to acceptor emission. The emission ratio of coumarin to fluorescein is used to assess the reaction progress. The extent of phosphorylation is determined from the emission ratio, which is low when the kinase is active (phosphorylated peptide is not cleaved, FRET pair connected) or higher for inhibited kinase (non-phosphorylated peptide is cleaved, FRET pair separated). Thus, the assay involves a kinase reaction in the presence of varying concentrations of a given compound, a development reaction with site specific protease, and detection of the fluorescent emission ratio of coumarin and fluorscein. […] Reaction conditions for each kinase are determined to provide optimal reaction times, incubation temperature, kinase and ATP concentrations. Test samples are made up in 1× kinase buffer (50 mM HEPES pH 7.5, 50 mM MgCl2, 5 mM EGTA, 0.05% BRIJ-35) and compound at desired concentration prepared in DMSO such that the final DMSO is 1%. […] Typically, assay plates are prepared to 10 μl final volume per sample, adding 2.5 μl of compound at 4× the desired concentration in 4% DMSO (serial dilution of compound provides concentration curve), 5 μl of the desired kinase mixed with Z′-LYTE™ peptide substrate (2× in 2× kinase buffer, final peptide at 2 μM), and 2.5 μl of 4×ATP solution. All kinase except for MAP2K1 were at 10 μM ATP in the kinase reaction, while MAP2K1 was at 100 μM. Samples are mixed and the kinase reaction is incubated 1 hour at room temperature, after which 5 μl of development solution is added and mixed. After incubation for another 1 hour at room temperature, 5 μl of stop reagent is added to each sample and mixed. The fluorescence signals are measured to determine the emission ratio.

[4] = biological target: EphB4 (Homo sapiens, UniProt P54760); assay: AlphaScreen kinase assay, EphB4; conditions: read-out: IC50, activity toward kinase EphB4
Sequence of EphB4 (P54760 16-987): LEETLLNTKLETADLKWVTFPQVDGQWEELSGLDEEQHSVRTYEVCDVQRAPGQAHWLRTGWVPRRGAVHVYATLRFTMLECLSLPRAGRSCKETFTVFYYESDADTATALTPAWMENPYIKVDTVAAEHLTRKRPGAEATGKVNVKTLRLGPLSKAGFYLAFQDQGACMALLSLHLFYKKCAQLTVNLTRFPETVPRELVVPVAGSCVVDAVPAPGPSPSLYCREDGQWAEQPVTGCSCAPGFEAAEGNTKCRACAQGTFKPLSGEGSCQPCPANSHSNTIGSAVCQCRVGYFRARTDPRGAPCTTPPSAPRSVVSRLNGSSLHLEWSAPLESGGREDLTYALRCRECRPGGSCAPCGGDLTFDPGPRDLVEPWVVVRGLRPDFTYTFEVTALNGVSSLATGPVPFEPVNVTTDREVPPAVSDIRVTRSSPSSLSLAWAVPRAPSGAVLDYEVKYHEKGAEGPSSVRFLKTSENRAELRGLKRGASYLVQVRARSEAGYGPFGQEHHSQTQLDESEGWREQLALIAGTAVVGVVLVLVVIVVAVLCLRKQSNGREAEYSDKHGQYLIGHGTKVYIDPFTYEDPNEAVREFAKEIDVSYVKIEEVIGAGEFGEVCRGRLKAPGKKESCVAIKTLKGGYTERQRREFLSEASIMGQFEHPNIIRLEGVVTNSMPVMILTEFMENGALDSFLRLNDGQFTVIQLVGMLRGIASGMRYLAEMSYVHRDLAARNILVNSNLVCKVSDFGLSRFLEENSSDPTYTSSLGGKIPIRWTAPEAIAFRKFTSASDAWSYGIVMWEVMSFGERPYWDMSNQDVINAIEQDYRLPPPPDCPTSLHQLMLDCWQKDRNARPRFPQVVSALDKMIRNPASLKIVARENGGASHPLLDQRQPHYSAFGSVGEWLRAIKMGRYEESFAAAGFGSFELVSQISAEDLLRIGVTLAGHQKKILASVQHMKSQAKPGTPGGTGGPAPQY
From the text: as §1, §2

[5] = biological target: MLK1 (Homo sapiens, UniProt P80192); assay: AlphaScreen kinase assay, MLK1; conditions: read-out: IC50, activity toward kinase MLK1
Sequence of MLK1 (P80192 whole entry): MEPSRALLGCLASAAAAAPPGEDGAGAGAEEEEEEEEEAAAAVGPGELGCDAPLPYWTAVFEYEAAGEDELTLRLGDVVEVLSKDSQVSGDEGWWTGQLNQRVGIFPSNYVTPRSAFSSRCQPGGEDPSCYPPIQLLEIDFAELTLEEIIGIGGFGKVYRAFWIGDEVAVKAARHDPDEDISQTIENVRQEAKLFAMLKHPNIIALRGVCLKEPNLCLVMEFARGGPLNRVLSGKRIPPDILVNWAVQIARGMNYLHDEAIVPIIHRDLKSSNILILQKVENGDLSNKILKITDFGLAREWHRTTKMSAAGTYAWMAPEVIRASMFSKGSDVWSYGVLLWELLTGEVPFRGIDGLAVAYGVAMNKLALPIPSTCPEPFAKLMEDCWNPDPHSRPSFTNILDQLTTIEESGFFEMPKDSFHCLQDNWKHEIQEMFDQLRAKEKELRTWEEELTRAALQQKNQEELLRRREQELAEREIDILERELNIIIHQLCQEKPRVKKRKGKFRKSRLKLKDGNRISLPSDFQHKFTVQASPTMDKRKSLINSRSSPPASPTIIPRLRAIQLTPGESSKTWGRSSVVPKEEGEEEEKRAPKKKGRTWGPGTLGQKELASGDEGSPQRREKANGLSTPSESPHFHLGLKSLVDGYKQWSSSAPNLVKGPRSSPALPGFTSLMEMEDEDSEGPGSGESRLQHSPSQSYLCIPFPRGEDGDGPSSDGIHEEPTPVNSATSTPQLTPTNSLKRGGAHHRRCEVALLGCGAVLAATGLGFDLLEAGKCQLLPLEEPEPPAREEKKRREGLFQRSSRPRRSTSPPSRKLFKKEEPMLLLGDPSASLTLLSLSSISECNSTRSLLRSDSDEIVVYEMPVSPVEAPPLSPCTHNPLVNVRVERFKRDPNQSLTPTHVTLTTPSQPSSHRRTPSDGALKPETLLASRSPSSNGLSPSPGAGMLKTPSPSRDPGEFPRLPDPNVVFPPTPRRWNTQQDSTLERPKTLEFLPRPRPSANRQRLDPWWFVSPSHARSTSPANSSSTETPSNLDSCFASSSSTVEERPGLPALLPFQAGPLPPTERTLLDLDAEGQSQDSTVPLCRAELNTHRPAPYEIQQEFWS
From the text: as §1, §2

[6] = biological target: T3, PDGFRB (Homo sapiens, UniProt P09619); assay: Z'-Lyte FRET kinase assay (Invitrogen), PDGFRB; conditions: read-out: IC50, activity toward kinase PDGFRB
T3 construct: purchased Invitrogen (Carlsbad, Calif.), screening service
T3 sequence (P09619 33-1106): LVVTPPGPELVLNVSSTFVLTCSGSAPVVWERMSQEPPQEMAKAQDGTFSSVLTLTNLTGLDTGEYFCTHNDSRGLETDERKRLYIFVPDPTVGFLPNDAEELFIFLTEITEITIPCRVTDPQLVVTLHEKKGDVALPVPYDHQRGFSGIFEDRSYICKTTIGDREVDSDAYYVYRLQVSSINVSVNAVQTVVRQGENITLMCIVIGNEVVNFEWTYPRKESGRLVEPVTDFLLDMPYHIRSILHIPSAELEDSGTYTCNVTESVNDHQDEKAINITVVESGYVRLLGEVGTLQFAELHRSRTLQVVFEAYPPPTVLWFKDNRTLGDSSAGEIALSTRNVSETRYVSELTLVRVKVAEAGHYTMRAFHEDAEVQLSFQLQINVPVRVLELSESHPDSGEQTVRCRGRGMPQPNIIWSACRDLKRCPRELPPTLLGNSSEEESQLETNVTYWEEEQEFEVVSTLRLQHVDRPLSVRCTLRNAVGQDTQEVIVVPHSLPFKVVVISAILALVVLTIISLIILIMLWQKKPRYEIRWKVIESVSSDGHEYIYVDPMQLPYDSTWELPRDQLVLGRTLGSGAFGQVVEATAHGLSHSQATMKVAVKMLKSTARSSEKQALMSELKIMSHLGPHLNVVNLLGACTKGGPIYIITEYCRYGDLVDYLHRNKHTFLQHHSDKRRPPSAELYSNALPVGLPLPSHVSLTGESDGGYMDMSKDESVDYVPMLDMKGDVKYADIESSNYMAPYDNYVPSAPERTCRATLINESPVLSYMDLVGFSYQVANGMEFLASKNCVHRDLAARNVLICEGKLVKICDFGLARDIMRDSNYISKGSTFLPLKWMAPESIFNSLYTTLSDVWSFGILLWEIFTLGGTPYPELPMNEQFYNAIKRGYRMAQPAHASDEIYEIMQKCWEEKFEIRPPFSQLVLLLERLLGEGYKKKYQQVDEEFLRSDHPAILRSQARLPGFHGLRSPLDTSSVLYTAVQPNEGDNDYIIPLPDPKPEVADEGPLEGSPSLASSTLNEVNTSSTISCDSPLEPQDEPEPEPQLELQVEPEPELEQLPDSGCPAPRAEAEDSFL
From the text: as §3
Briefly, the Invitrogen kinase assay involves use of a specific peptide substrate optimized for each kinase, containing a fluorophore at each end that make up the FRET pair. The peptide sensitivity to proteolytic cleavage depends on phosphorylation of the peptide. […] The extent of phosphorylation is determined from the emission ratio, which is low when the kinase is active (phosphorylated peptide is not cleaved, FRET pair connected) or higher for inhibited kinase (non-phosphorylated peptide is cleaved, FRET pair separated). […] Reaction conditions for each kinase are determined to provide optimal reaction times, incubation temperature, kinase and ATP concentrations. […] The fluorescence signals are measured to determine the emission ratio.

[7] = biological target: T4, p38 (Homo sapiens, UniProt Q16539); assay: AlphaScreen kinase assay, p38; conditions: read-out: IC50, activity toward kinase p38
T4 construct: P4292.pET15S P38A M1-S360-X MKK6DD; His6 with thrombin site (N); made in house
T4 sequence (Q16539 with tags, fused parts or gaps): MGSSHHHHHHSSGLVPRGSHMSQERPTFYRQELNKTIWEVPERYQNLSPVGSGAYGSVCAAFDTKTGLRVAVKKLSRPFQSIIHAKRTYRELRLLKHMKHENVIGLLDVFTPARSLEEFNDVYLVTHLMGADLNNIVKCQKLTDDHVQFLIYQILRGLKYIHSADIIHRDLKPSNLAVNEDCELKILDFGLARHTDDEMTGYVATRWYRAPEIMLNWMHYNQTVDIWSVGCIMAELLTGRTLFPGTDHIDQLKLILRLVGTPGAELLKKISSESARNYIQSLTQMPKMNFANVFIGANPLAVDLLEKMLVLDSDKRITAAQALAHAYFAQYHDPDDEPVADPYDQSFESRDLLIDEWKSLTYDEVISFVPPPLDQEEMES

Structure (SMILES): O=C(c1ccc(O)cc1)c1c[nH]c2ncc(-c3cccs3)cc12 [Compound P-0024, (4-Hydroxy-phenyl)-(5-thiophen-2-yl-1H-pyrrolo[2,3-b]pyridin-3-yl)-methanone]
- IC50 [1]: ≤ 10 µM

Structure (SMILES): CS(=O)(=O)c1cccc(-c2cnc3[nH]cc(C(O)c4c(F)ccc(F)c4F)c3c2)c1 (stereo not shown) [Compound P-0020]
- IC50 [3]: ≤ 10 µM

Structure (SMILES): CCCS(=O)(=O)Nc1ccc(F)c(C(=O)c2c[nH]c3ncc(-c4cccnc4)cc23)c1F [Compound P-0088, Propane-1-sulfonic acid [2,4-difluoro-3-(5-pyridin-3-yl-1H-pyrrolo[2,3-b]pyridine-3-carbonyl)-phenyl]-amide]
- IC50 [6]: ≤ 10 µM

Structure (SMILES): Nc1cccc(-c2cnc3[nH]cc(C(=O)c4cc(O)ccc4F)c3c2)c1 [Compound P-0002]
- IC50 [3]: ≤ 10 µM

Structure (SMILES): O=C(O)/C=C/c1cccc(-c2cnc3[nH]cc(C(=O)c4cc(O)ccc4F)c3c2)c1 [Compound P-0010]
- IC50 [7]: ≤ 10 µM

The remaining lines, values ahead:

- IC50 [2]: ≤ 10 µM
Structure (SMILES): OCCOc1ccc(F)c(Cc2c[nH]c3ncc(-c4cccnc4)cc23)c1F [Compound P-1394, 2-[2,4-Difluoro-3-(5-pyridin-3-yl-1H-pyrrolo[2,3-b]pyridin-3-ylmethyl)-phenoxy]-ethanol]

- IC50 [4]: ≤ 10 µM
Structure (SMILES): CCCS(=O)(=O)Nc1ccc(F)c(C(=O)c2c[nH]c3ncc(OC)cc23)c1F [Compound P-0806, Propane-1-sulfonic acid [2,4-difluoro-3-(5-methoxy-1H-pyrrolo[2,3-b]pyridine-3-carbonyl)-phenyl]-amide]

- IC50 [1]: ≤ 10 µM
Structure (SMILES): COc1ccc(F)c(C(=O)c2c[nH]c3ncc(-c4cccnc4)cc23)c1 [Compound P-0090]

- IC50 [5]: ≤ 10 µM
Structure (SMILES): COc1cc(OC)cc(C(=O)c2c[nH]c3ncc(-c4cccc(NS(C)(=O)=O)c4)cc23)c1 [Compound P-1426, N-{3-[3-(3,5-Dimethoxy-benzoyl)-1H-pyrrolo[2,3-b]pyridin-5-yl]-phenyl}-methanesulfonamide]

- IC50 [6]: ≤ 10 µM
Structure (SMILES): O=C(Nc1ccc(Cc2c[nH]c3ncccc23)cc1)Nc1cccc(C(F)(F)F)c1 [Compound P-0262, 1-[4-(1H-Pyrrolo[2,3-b]pyridin-3-ylmethyl)-phenyl]-3-(3-trifluoromethyl-phenyl)-urea]

- IC50 [5]: ≤ 10 µM
- IC50 [2]: ≤ 10 µM
- IC50 [4]: ≤ 10 µM
Structure (SMILES): COc1cccc(C(=O)c2c[nH]c3ncc(-c4cccc(NC(C)=O)c4)cc23)c1F [Compound P-1336, N-{3-[3-(2-Fluoro-3-methoxy-benzoyl)-1H-pyrrolo[2,3-b]pyridin-5-yl]-phenyl}-acetamide]
